Results as given in PubChem BioAssay AID1919007 (Molecular Pharmacology Branch, DTP, NCI, 2023).
pIC50: −log10 of the molar value.

System: A498 complex spheroids with HUVEC/MSC, growth
Test: Anticancer human tumor A498 cell line growth inhibition [AhR];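 further: seven day exposure starting three days after spheroid seeding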;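 on viability, T/C: luminescence signal used as a surrogate for viable cells; luminescence viability scaled so 100% equals DMSO vehicle wells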
Conditions: for pIC50: curve of first compound; for viability, T/C: stronger effect = lower value
In short: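 Complex tumor spheroids co-cultured with HUVEC and human MSC stroma; AhR antagonists tested in combination with standard-of-care and investigational agents. Top concentration at or near clinical Cmax (else 10 microM), half-log dilutions; growth expressed as percent test/control.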

[1] = second compound 0.1 µM, first compound 0.0316 µM
[2] = second compound 0.1 µM, first compound 0.1 µM
[3] = second compound 0.1 µM, first compound 0.316 µM
[4] = second compound 0.1 µM, first compound 1 µM
[5] = second compound 0.1 µM, first compound 3.16 µM
[6] = second compound 0.1 µM, first compound 10 µM
[7] = second compound 0.316 µM, first compound 0.0316 µM
[8] = second compound 0.316 µM, first compound 0.1 µM
[9] = second compound 0.316 µM, first compound 0.316 µM
[10] = second compound 0.316 µM, first compound 1 µM
[11] = second compound 0.316 µM, first compound 3.16 µM
[12] = second compound 0.316 µM, first compound 10 µM
[13] = second compound 1 µM, first compound 0.0316 µM
[14] = second compound 1 µM, first compound 0.1 µM
[15] = second compound 1 µM, first compound 0.316 µM
[16] = second compound 1 µM, first compound 1 µM
[17] = second compound 1 µM, first compound 3.16 µM
[18] = second compound 1 µM, first compound 10 µM
[19] = second compound 3.16 µM, first compound 0.0316 µM
[20] = second compound 3.16 µM, first compound 0.1 µM
[21] = second compound 3.16 µM, first compound 0.316 µM
[22] = second compound 3.16 µM, first compound 1 µM
[23] = second compound 3.16 µM, first compound 3.16 µM
[24] = second compound 3.16 µM, first compound 10 µM
[25] = second compound 10 µM, first compound 0.0316 µM
[26] = second compound 10 µM, first compound 0.1 µM
[27] = second compound 10 µM, first compound 0.316 µM
[28] = second compound 10 µM, first compound 1 µM
[29] = second compound 10 µM, first compound 3.16 µM
[30] = second compound 10 µM, first compound 10 µM

Work on `CC(C)CC(NC(=O)C(Cc1ccccc1)NC(=O)c1cnccn1)B(O)O` (stereo not given) + Cc1ccccc1N=Nc1ccc(NC(=O)c2ccnn2C)c(C)c1 yielded a pIC50 (second compound 0.1 µM) of 8.28, a pIC50 (second compound 0.316 µM) of 8.24 and a pIC50 (second compound 1 µM) of 8.28. For the same compound, the pIC50 (second compound 3.16 µM) was 8.29, the pIC50 (second compound 10 µM) was 8.29 and the viability, T/C (second compound 0.1 µM, first compound 0.000949 µM) was 91.9%. The viability, T/C (second compound 0.1 µM, first compound 0.003 µM) was 85.5%, the viability, T/C (second compound 0.1 µM, first compound 0.00949 µM) was 12.4% and the viability, T/C (second compound 0.1 µM, first compound 0.03 µM) was 2.56%. It also gave a viability, T/C (second compound 0.1 µM, first compound 0.0949 µM) of 1.06%, a viability, T/C (second compound 0.1 µM, first compound 0.3 µM) of 0.48% and a viability, T/C (second compound 0.316 µM, first compound 0.000949 µM) of 99.1%. It also gave a viability, T/C (second compound 0.316 µM, first compound 0.003 µM) of 102%, a viability, T/C (second compound 0.316 µM, first compound 0.00949 µM) of 11% and a viability, T/C (second compound 0.316 µM, first compound 0.03 µM) of 3.7%. It also gave a viability, T/C (second compound 0.316 µM, first compound 0.0949 µM) of 3.08%, a viability, T/C (second compound 0.316 µM, first compound 0.3 µM) of 1.05% and a viability, T/C (second compound 1 µM, first compound 0.000949 µM) of 81.7%. It also gave a viability, T/C (second compound 1 µM, first compound 0.003 µM) of 86.3%, a viability, T/C (second compound 1 µM, first compound 0.00949 µM) of 12.4% and a viability, T/C (second compound 1 µM, first compound 0.03 µM) of 3.99%. The viability, T/C (second compound 1 µM, first compound 0.0949 µM) was 2.9%, the viability, T/C (second compound 1 µM, first compound 0.3 µM) was 0.61% and the viability, T/C (second compound 3.16 µM, first compound 0.000949 µM) was 80.9%. It also gave a viability, T/C (second compound 3.16 µM, first compound 0.003 µM) of 86.7%, a viability, T/C (second compound 3.16 µM, first compound 0.00949 µM) of 11.8% and a viability, T/C (second compound 3.16 µM, first compound 0.03 µM) of 4.56%. The viability, T/C (second compound 3.16 µM, first compound 0.0949 µM) was 3.32%, the viability, T/C (second compound 3.16 µM, first compound 0.3 µM) was 0.84% and the viability, T/C (second compound 10 µM, first compound 0.000949 µM) was 84.8%. It also gave a viability, T/C (second compound 10 µM, first compound 0.003 µM) of 87.2%, a viability, T/C (second compound 10 µM, first compound 0.00949 µM) of 8.3% and a viability, T/C (second compound 10 µM, first compound 0.03 µM) of 4.14%. The viability, T/C (second compound 10 µM, first compound 0.0949 µM) was 1.64% and the viability, T/C (second compound 10 µM, first compound 0.3 µM) was 1.69%.
`COc1cc(Nc2ncc3c(n2)-c2ccc(Cl)cc2C(c2c(F)cccc2OC)=NC3)ccc1C(=O)O` + Cc1ccccc1N=Nc1ccc(NC(=O)c2ccnn2C)c(C)c1 gave a pIC50 (second compound 0.1 µM) of 5.72, a pIC50 (second compound 0.316 µM) of 5.74 and a pIC50 (second compound 1 µM) of 5.82. It also gave a pIC50 (second compound 3.16 µM) of 5.87, a pIC50 (second compound 10 µM) of 5.59 and a viability, T/C [1] of 70.2%. It also gave a viability, T/C [2] of 73%, a viability, T/C [3] of 65.8% and a viability, T/C [4] of 54.4%. For the same compound, the viability, T/C [5] was 46.6%, the viability, T/C [6] was 33.5% and the viability, T/C [7] was 70%. The viability, T/C [8] was 72.4%, the viability, T/C [9] was 70.7% and the viability, T/C [10] was 54.9%. The viability, T/C [11] was 45.2%, the viability, T/C [12] was 34.2% and the viability, T/C [13] was 67.8%. The viability, T/C [14] was 67.2%, the viability, T/C [15] was 59.6% and the viability, T/C [16] was 56.5%. The viability, T/C [17] was 41.3%, the viability, T/C [18] was 31.8% and the viability, T/C [19] was 69.2%. For the same compound, the viability, T/C [20] was 72.7%, the viability, T/C [21] was 62.2% and the viability, T/C [22] was 49.9%. The viability, T/C [23] was 44.8%, the viability, T/C [24] was 31.8% and the viability, T/C [25] was 63.9%. For the same compound, the viability, T/C [26] was 63.4%, the viability, T/C [27] was 56.7% and the viability, T/C [28] was 59%. For the same compound, the viability, T/C [29] was 47.9% and the viability, T/C [30] was 35.1%.
In the case of `Cn1ncnc1C1c2n[nH]c(=O)c3cc(F)cc(c23)NC1c1ccc(F)cc1` (stereo not given) + Cc1ccccc1N=Nc1ccc(NC(=O)c2ccnn2C)c(C)c1, the pIC50 (second compound 0.1 µM) was less than 7.00, the pIC50 (second compound 0.316 µM) was less than 7.00 and the pIC50 (second compound 1 µM) was less than 7.00. The pIC50 (second compound 3.16 µM) was less than 7.00, the pIC50 (second compound 10 µM) was less than 7.00 and the viability, T/C (second compound 0.1 µM, first compound 0.000316 µM) was 102%. For the same compound, the viability, T/C (second compound 0.1 µM, first compound 0.001 µM) was 93.6%, the viability, T/C (second compound 0.1 µM, first compound 0.00316 µM) was 92.2% and the viability, T/C (second compound 0.1 µM, first compound 0.01 µM) was 94%. It also gave a viability, T/C [1] of 86%, a viability, T/C [2] of 88% and a viability, T/C (second compound 0.316 µM, first compound 0.000316 µM) of 96.3%. For the same compound, the viability, T/C (second compound 0.316 µM, first compound 0.001 µM) was 91.5%, the viability, T/C (second compound 0.316 µM, first compound 0.00316 µM) was 95.1% and the viability, T/C (second compound 0.316 µM, first compound 0.01 µM) was 93.3%. For the same compound, the viability, T/C [7] was 90.4%, the viability, T/C [8] was 88.2% and the viability, T/C (second compound 1 µM, first compound 0.000316 µM) was 93.5%. For the same compound, the viability, T/C (second compound 1 µM, first compound 0.001 µM) was 89%, the viability, T/C (second compound 1 µM, first compound 0.00316 µM) was 85.6% and the viability, T/C (second compound 1 µM, first compound 0.01 µM) was 81.2%. The viability, T/C [13] was 81.5%, the viability, T/C [14] was 87.3% and the viability, T/C (second compound 3.16 µM, first compound 0.000316 µM) was 83.7%. It also gave a viability, T/C (second compound 3.16 µM, first compound 0.001 µM) of 86.8%, a viability, T/C (second compound 3.16 µM, first compound 0.00316 µM) of 88.7% and a viability, T/C (second compound 3.16 µM, first compound 0.01 µM) of 84.7%. For the same compound, the viability, T/C [19] was 83.2%, the viability, T/C [20] was 73.7% and the viability, T/C (second compound 10 µM, first compound 0.000316 µM) was 82%. It also gave a viability, T/C (second compound 10 µM, first compound 0.001 µM) of 93%, a viability, T/C (second compound 10 µM, first compound 0.00316 µM) of 90.8% and a viability, T/C (second compound 10 µM, first compound 0.01 µM) of 85%. It also gave a viability, T/C [25] of 79.6% and a viability, T/C [26] of 81.7%.
For `NS(=O)(=O)OCC1CC(n2ccc3c(NC4CCc5ccccc54)ncnc32)CC1O` (stereo not given) + Cc1ccccc1N=Nc1ccc(NC(=O)c2ccnn2C)c(C)c1, the pIC50 (second compound 0.1 µM) was 6.48, the pIC50 (second compound 0.316 µM) was 6.44 and the pIC50 (second compound 1 µM) was 6.50. For the same compound, the pIC50 (second compound 3.16 µM) was 6.47, the pIC50 (second compound 10 µM) was 6.46 and the viability, T/C [1] was 87.8%. It also gave a viability, T/C [2] of 83.8%, a viability, T/C [3] of 49.3% and a viability, T/C [4] of 31.3%. The viability, T/C [5] was 26%, the viability, T/C [6] was 20.1% and the viability, T/C [7] was 88.5%. It also gave a viability, T/C [8] of 83.8%, a viability, T/C [9] of 51.2% and a viability, T/C [10] of 31%. The viability, T/C [11] was 25.7%, the viability, T/C [12] was 21.3% and the viability, T/C [13] was 86.2%. The viability, T/C [14] was 78%, the viability, T/C [15] was 49.2% and the viability, T/C [16] was 30.1%. The viability, T/C [17] was 24.2%, the viability, T/C [18] was 21.9% and the viability, T/C [19] was 83.5%. It also gave a viability, T/C [20] of 77.3%, a viability, T/C [21] of 49.6% and a viability, T/C [22] of 33%. The viability, T/C [23] was 25.9%, the viability, T/C [24] was 22.7% and the viability, T/C [25] was 78.2%. For the same compound, the viability, T/C [26] was 71.7%, the viability, T/C [27] was 50.5% and the viability, T/C [28] was 33.9%. It also gave a viability, T/C [29] of 25% and a viability, T/C [30] of 23.2%.
For `O=C(C=Cc1cccc(S(=O)(=O)Nc2ccccc2)c1)NO` + Cc1ccccc1N=Nc1ccc(NC(=O)c2ccnn2C)c(C)c1, the pIC50 (second compound 0.1 µM) was 5.71, the pIC50 (second compound 0.316 µM) was 5.69 and the pIC50 (second compound 1 µM) was 5.73. It also gave a pIC50 (second compound 3.16 µM) of 5.84, a pIC50 (second compound 10 µM) of 5.75 and a viability, T/C [1] of 84.2%. The viability, T/C [2] was 88.4%, the viability, T/C [3] was 72% and the viability, T/C [4] was 56.9%. It also gave a viability, T/C [5] of 45.4%, a viability, T/C [6] of 19.8% and a viability, T/C [7] of 95.6%. The viability, T/C [8] was 87.5%, the viability, T/C [9] was 75.2% and the viability, T/C [10] was 59.5%. It also gave a viability, T/C [11] of 46.3%, a viability, T/C [12] of 20.1% and a viability, T/C [13] of 82.4%. The viability, T/C [14] was 82.7%, the viability, T/C [15] was 68.2% and the viability, T/C [16] was 54.6%. For the same compound, the viability, T/C [17] was 47%, the viability, T/C [18] was 18.3% and the viability, T/C [19] was 85.5%. For the same compound, the viability, T/C [20] was 80.9%, the viability, T/C [21] was 63% and the viability, T/C [22] was 55.7%. The viability, T/C [23] was 42.4%, the viability, T/C [24] was 18.8% and the viability, T/C [25] was 80.2%. It also gave a viability, T/C [26] of 75.7%, a viability, T/C [27] of 71.1% and a viability, T/C [28] of 55.1%. The viability, T/C [29] was 43.9% and the viability, T/C [30] was 17.5%.
